Patent publication US11752188B2, “Compositions and methods for nutritional supplements” (DailyColors Health Inc., priority 2020, dated 2023)
Where two headings read alike, the source gives them in different places.

Legend:
recombinant human CD38 = biological target: T1, recombinant human CD38 (Homo sapiens, UniProt P28907); experiment: CD38 hydrolase in vitro enzymatic assay (ε-NAD+ substrate); assay type: biochemical
T1 construct: purchased 71277
T1 sequence (P28907 1-300): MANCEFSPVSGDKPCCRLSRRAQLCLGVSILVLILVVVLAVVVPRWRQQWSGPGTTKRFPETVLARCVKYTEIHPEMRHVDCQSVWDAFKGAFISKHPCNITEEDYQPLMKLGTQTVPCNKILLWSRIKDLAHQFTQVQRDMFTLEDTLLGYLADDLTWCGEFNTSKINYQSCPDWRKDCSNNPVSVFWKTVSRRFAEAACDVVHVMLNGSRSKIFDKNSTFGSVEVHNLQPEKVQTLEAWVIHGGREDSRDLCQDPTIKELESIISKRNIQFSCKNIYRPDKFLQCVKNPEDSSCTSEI
From the text: Here, DC-5=Yellow Blend, DC-9=Purple Blend, DC-21-Green Blend, DC-13=Red Blend DCH-TIV 1.0 (Adult Centrum Multivitamins). The red blend included Apple Extract, Pomegranate Extract, Tomato Powder, Beet; the green blend included Olive Extract, Rosemary Extract, Green Coffee Bean Extract, Kale; the orange/yellow blend included Onion Extract, Ginger Extract, Grapefruit Extract, Carrot; and the purple/blue blend included Grape, Blueberry Extract, Currant, and Elderberry as listed above.
Assay Conditions: 10 μl of the sample or reference inhibitor was added to 20 μl of enzyme solution and pre-incubated for 30 minutes. The enzymatic reactions were started by the addition of 20 μl of the substrate ε-NAD+, for a total reaction volume of 50 μl. Reaction time was 10 minutes, and then fluorescence intensity at an excitation of 300 nm and an emission of 410 nm was read using a Tecan Infinite M1000 microplate reader.
(§1) Data Analysis: Enzyme activity assays were performed in duplicates at each concentration. The fluorescence intensity data were analyzed and compared. In the absence of the compound, the intensity in each data set was defined as 100% (Ce) activity. In the absence of enzyme, the intensity in each data set was defined as 0% (C0) activity. […] Compound fluorescence was removed by subtracting fluorescence at reaction time=0.

[1] = biological target: recombinant human Cathepsin S (Homo sapiens, UniProt P25774); experiment: Cathepsin S in vitro enzymatic assay (fluorogenic substrate); assay type: biochemical
recombinant human Cathepsin S, sequence (P25774 115-331): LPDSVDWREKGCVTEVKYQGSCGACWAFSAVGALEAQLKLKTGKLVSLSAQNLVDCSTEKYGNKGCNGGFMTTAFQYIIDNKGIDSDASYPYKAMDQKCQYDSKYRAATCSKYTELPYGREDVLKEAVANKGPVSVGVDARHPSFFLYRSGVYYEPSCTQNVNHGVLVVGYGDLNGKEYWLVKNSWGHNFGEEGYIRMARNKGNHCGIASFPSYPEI
Procedure: Assay Conditions: Cathepsin S was activated by diluting the concentrated storage stock into the acidic assay buffer for 30 minutes at room temperature. Then, 5 μl of the sample or reference inhibitor was added to 20 μl of enzyme solution and pre-incubated for 30 minutes. The enzymatic reactions were started by the addition of 25 μl of the fluorogenic substrate, for a total reaction volume of 50 μl. Reaction time was 60 minutes, and then fluorescence intensity at an excitation of 360 nm and an emission of 460 nm was read using a Tecan Infinite M1000 microplate reader.
as §1

Structure (SMILES): O=c1cc(-c2ccc(O)cc2)oc2cc(O)cc(O)c12 [Apigenin]
- Net Signal (Fluorescence counts) Repeat 1 (recombinant human CD38; 1 μM, Table 61): 3461 Fluorescence counts
- Net Signal (Fluorescence counts) Repeat 2 (recombinant human CD38; 1 μM, Table 61): 3761 Fluorescence counts
- inhibition at 1 µM (recombinant human CD38; 1 μM, Table 61): 14%
- activity at 1 µM (recombinant human CD38; 1 μM, Table 61, read-out: Activity (%) Repeat 1): 82%
- activity at 1 µM (recombinant human CD38; 1 μM, Table 61, read-out: Activity (%) Repeat 2): 89%
- Net Signal (Fluorescence counts) Repeat 1 (recombinant human CD38; 1 μM, Table 62): 8650 Fluorescence counts
- Net Signal (Fluorescence counts) Repeat 2 (recombinant human CD38; 1 μM, Table 62): 8614 Fluorescence counts
- inhibition at 1 µM (recombinant human CD38; 1 μM, Table 62): 6%
- activity at 1 µM (recombinant human CD38; 1 μM, Table 62, read-out: Activity (%) Repeat 1): 94%
- activity at 1 µM (recombinant human CD38; 1 μM, Table 62, read-out: Activity (%) Repeat 2): 94%
- Net Signal (Fluorescence counts) Repeat 1 (recombinant human CD38; 1 μM, Table 63): 11531 Fluorescence counts
- Net Signal (Fluorescence counts) Repeat 2 (recombinant human CD38; 1 μM, Table 63): 11647 Fluorescence counts
- inhibition at 1 µM (recombinant human CD38; 1 μM, Table 63): 14%
- activity at 1 µM (recombinant human CD38; 1 μM, Table 63, read-out: Activity (%) Repeat 1): 86%
- activity at 1 µM (recombinant human CD38; 1 μM, Table 63, read-out: Activity (%) Repeat 2): 86%
- Net Signal (Fluorescence counts) Repeat 1 (recombinant human CD38; 1 μM, TABLE 64): 4138 counts
- Net Signal (Fluorescence counts) Repeat 2 (recombinant human CD38; 1 μM, TABLE 64): 3883 counts
- inhibition at 1 µM (recombinant human CD38; 1 μM, TABLE 64): 8%
- activity at 1 µM (recombinant human CD38; 1 μM, TABLE 64, read-out: Activity (%) Repeat 1): 95%
- activity at 1 µM (recombinant human CD38; 1 μM, TABLE 64, read-out: Activity (%) Repeat 2): 89%
- Net Signal (Fluorescence counts) Repeat 1 (recombinant human CD38; 10 μM, Table 61): 647 Fluorescence counts
- Net Signal (Fluorescence counts) Repeat 2 (recombinant human CD38; 10 μM, Table 61): 618 Fluorescence counts
- inhibition at 10 µM (recombinant human CD38; 10 μM, Table 61): 85%
- activity at 10 µM (recombinant human CD38; 10 μM, Table 61, read-out: Activity (%) Repeat 1): 15%
- activity at 10 µM (recombinant human CD38; 10 μM, Table 61, read-out: Activity (%) Repeat 2): 14%
- Net Signal (Fluorescence counts) Repeat 1 (recombinant human CD38; 10 μM, Table 62): 4670 Fluorescence counts
- Net Signal (Fluorescence counts) Repeat 2 (recombinant human CD38; 10 μM, Table 62): 5416 Fluorescence counts
- inhibition at 10 µM (recombinant human CD38; 10 μM, Table 62): 45%
- activity at 10 µM (recombinant human CD38; 10 μM, Table 62, read-out: Activity (%) Repeat 1): 51%
- activity at 10 µM (recombinant human CD38; 10 μM, Table 62, read-out: Activity (%) Repeat 2): 59%
- Net Signal (Fluorescence counts) Repeat 1 (recombinant human CD38; 10 μM, Table 63): 7118 Fluorescence counts
- Net Signal (Fluorescence counts) Repeat 2 (recombinant human CD38; 10 μM, Table 63): 7228 Fluorescence counts
- inhibition at 10 µM (recombinant human CD38; 10 μM, Table 63): 47%
- activity at 10 µM (recombinant human CD38; 10 μM, Table 63, read-out: Activity (%) Repeat 1): 53%
- activity at 10 µM (recombinant human CD38; 10 μM, Table 63, read-out: Activity (%) Repeat 2): 54%
- Net Signal (Fluorescence counts) Repeat 1 (recombinant human CD38; 10 μM, TABLE 64): 3091 counts
- Net Signal (Fluorescence counts) Repeat 2 (recombinant human CD38; 10 μM, TABLE 64): 3057 counts
- inhibition at 10 µM (recombinant human CD38; 10 μM, TABLE 64): 30%
- activity at 10 µM (recombinant human CD38; 10 μM, TABLE 64, read-out: Activity (%) Repeat 1): 70%
- activity at 10 µM (recombinant human CD38; 10 μM, TABLE 64, read-out: Activity (%) Repeat 2): 70%
- Net Signal (Fluorescence counts) Repeat 1 (recombinant human CD38; 100 μM, Table 61): 185 Fluorescence counts
- Net Signal (Fluorescence counts) Repeat 2 (recombinant human CD38; 100 μM, Table 61): 135 Fluorescence counts
- inhibition at 100 µM (recombinant human CD38; 100 μM, Table 61): 96%
- activity at 100 µM (recombinant human CD38; 100 μM, Table 61, read-out: Activity (%) Repeat 1): 4%
- activity at 100 µM (recombinant human CD38; 100 μM, Table 61, read-out: Activity (%) Repeat 2): 3%
- Net Signal (Fluorescence counts) Repeat 1 (recombinant human CD38; 100 μM, Table 62): 1979 Fluorescence counts
- Net Signal (Fluorescence counts) Repeat 2 (recombinant human CD38; 100 μM, Table 62): 2165 Fluorescence counts
- inhibition at 100 µM (recombinant human CD38; 100 μM, Table 62): 78%
- activity at 100 µM (recombinant human CD38; 100 μM, Table 62, read-out: Activity (%) Repeat 1): 21%
- activity at 100 µM (recombinant human CD38; 100 μM, Table 62, read-out: Activity (%) Repeat 2): 23%
- Net Signal (Fluorescence counts) Repeat 1 (recombinant human CD38; 100 μM, Table 63): 5012 Fluorescence counts
- Net Signal (Fluorescence counts) Repeat 2 (recombinant human CD38; 100 μM, Table 63): 5473 Fluorescence counts
- inhibition at 100 µM (recombinant human CD38; 100 μM, Table 63): 61%
- activity at 100 µM (recombinant human CD38; 100 μM, Table 63, read-out: Activity (%) Repeat 1): 37%
- activity at 100 µM (recombinant human CD38; 100 μM, Table 63, read-out: Activity (%) Repeat 2): 40%
- Net Signal (Fluorescence counts) Repeat 1 (recombinant human CD38; 100 μM, TABLE 64): 632 counts
- Net Signal (Fluorescence counts) Repeat 2 (recombinant human CD38; 100 μM, TABLE 64): 728 counts
- inhibition at 100 µM (recombinant human CD38; 100 μM, TABLE 64): 85%
- activity at 100 µM (recombinant human CD38; 100 μM, TABLE 64, read-out: Activity (%) Repeat 1): 14%
- activity at 100 µM (recombinant human CD38; 100 μM, TABLE 64, read-out: Activity (%) Repeat 2): 16%

Structure (SMILES): CC(C)C[C@H](NC(=O)[C@H]1O[C@@H]1C(=O)O)C(=O)NCCCCN=C(N)N [E-64]
- Activity (%) Repeat 1 ([1]; 1 nM, Table 35): 98%
- Activity (%) Repeat 2 ([1]; 1 nM, Table 35): 95%
- Inhibition (%) ([1]; 1 nM, Table 35): 4%
- Net Signal (Fluorescence counts) Repeat 1 ([1]; 1 nM, Table 35): 9894 Fluorescence counts
- Net Signal (Fluorescence counts) Repeat 2 ([1]; 1 nM, Table 35): 9604 Fluorescence counts
- Activity (%) Repeat 1 ([1]; 1 nM, Table 36): 99%
- Activity (%) Repeat 2 ([1]; 1 nM, Table 36): 100%
- Inhibition (%) ([1]; 1 nM, Table 36): 1%
- Net Signal (Fluorescence counts) Repeat 1 ([1]; 1 nM, Table 36): 8864 Fluorescence counts
- Net Signal (Fluorescence counts) Repeat 2 ([1]; 1 nM, Table 36): 8931 Fluorescence counts
- Activity (%) Repeat 1 ([1]; 0.001 μM, Table 37): 88%
- Activity (%) Repeat 2 ([1]; 0.001 μM, Table 37): 83%
- Inhibition (%) ([1]; 0.001 μM, Table 37): 15%
- Net Signal (Fluorescence counts) Repeat 1 ([1]; 0.001 μM, Table 37): 52418 Fluorescence counts
- Net Signal (Fluorescence counts) Repeat 2 ([1]; 0.001 μM, Table 37): 49644 Fluorescence counts
- Activity (%) Repeat 1 ([1]; 10 nM, Table 35): 51%
- Activity (%) Repeat 2 ([1]; 10 nM, Table 35): 54%
- Inhibition (%) ([1]; 10 nM, Table 35): 48%
- Net Signal (Fluorescence counts) Repeat 1 ([1]; 10 nM, Table 35): 5170 Fluorescence counts
- Net Signal (Fluorescence counts) Repeat 2 ([1]; 10 nM, Table 35): 5444 Fluorescence counts
- Activity (%) Repeat 1 ([1]; 10 nM, Table 36): 64%
- Activity (%) Repeat 2 ([1]; 10 nM, Table 36): 59%
- Inhibition (%) ([1]; 10 nM, Table 36): 38%
- Net Signal (Fluorescence counts) Repeat 1 ([1]; 10 nM, Table 36): 5727 Fluorescence counts
- Net Signal (Fluorescence counts) Repeat 2 ([1]; 10 nM, Table 36): 5326 Fluorescence counts
- Activity (%) Repeat 1 ([1]; 0.01 μM, Table 37): 36%
- Activity (%) Repeat 2 ([1]; 0.01 μM, Table 37): 33%
- Inhibition (%) ([1]; 0.01 μM, Table 37): 66%
- Net Signal (Fluorescence counts) Repeat 1 ([1]; 0.01 μM, Table 37): 21262 Fluorescence counts
- Net Signal (Fluorescence counts) Repeat 2 ([1]; 0.01 μM, Table 37): 19656 Fluorescence counts
- Activity (%) Repeat 1 ([1]; 0.1 μM, Table 37): 5%
- Activity (%) Repeat 2 ([1]; 0.1 μM, Table 37): 6%
- Inhibition (%) ([1]; 0.1 μM, Table 37): 95%
- Net Signal (Fluorescence counts) Repeat 1 ([1]; 0.1 μM, Table 37): 3091 Fluorescence counts
- Net Signal (Fluorescence counts) Repeat 2 ([1]; 0.1 μM, Table 37): 3478 Fluorescence counts
- Activity (%) Repeat 1 ([1]; 100 nM, Table 35): 9%
- Activity (%) Repeat 2 ([1]; 100 nM, Table 35): 9%
- Inhibition (%) ([1]; 100 nM, Table 35): 91%
- Net Signal (Fluorescence counts) Repeat 1 ([1]; 100 nM, Table 35): 958 Fluorescence counts
- Net Signal (Fluorescence counts) Repeat 2 ([1]; 100 nM, Table 35): 960 Fluorescence counts
- Activity (%) Repeat 1 ([1]; 100 nM, Table 36): 11%
- Activity (%) Repeat 2 ([1]; 100 nM, Table 36): 12%
- Inhibition (%) ([1]; 100 nM, Table 36): 89%
- Net Signal (Fluorescence counts) Repeat 1 ([1]; 100 nM, Table 36): 1009 Fluorescence counts
- Net Signal (Fluorescence counts) Repeat 2 ([1]; 100 nM, Table 36): 1033 Fluorescence counts
